Assay results as given in ChEMBL document CHEMBL1128179, “Structure-activity study of tripeptide thrombin inhibitors using alpha-alkyl amino acids and other conformationally constrained amino acid substitutions” (J Med Chem, 1995).
Square brackets hold non-standard residues; d marks the D form. Peptide text beside a SMILES is read from it. * marks the point of attachment. Tic = O=C(O)[C@@H]1Cc2ccccc2CN1; dPhg = N[C@@H](C(=O)O)c1ccccc1; Boc = CC(C)(C)OC(=O)*

Legend:
[1] = target: Tissue-type plasminogen activator (Homo sapiens, UniProt P00750); assay: In vitro Enzyme Inhibitory activity against t-PA(Tissue plasminogen activator).
Plasminogen = Plasminogen (Homo sapiens, UniProt P00747); assay: In vitro Enzyme Inhibitory activity measured against Plasmin
Coagulation factor X = Coagulation factor X (Bos taurus, UniProt P00743); assay: In vitro Enzyme Inhibitory activity measured against Coagulation factor X
Serine protease 1 = target: T1, Serine protease 1 (Bos taurus, UniProt P00760); assay: In vitro Enzyme Inhibitory activity measured against Trypsin
T1 sequence (P00760 whole entry): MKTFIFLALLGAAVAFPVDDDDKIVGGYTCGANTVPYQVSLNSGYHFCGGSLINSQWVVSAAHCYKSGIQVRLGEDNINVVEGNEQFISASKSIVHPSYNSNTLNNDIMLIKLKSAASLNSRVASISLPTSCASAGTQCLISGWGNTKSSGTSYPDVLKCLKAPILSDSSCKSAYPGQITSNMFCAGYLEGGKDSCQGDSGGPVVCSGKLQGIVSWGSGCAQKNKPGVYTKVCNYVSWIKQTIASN

Prothrombin = Prothrombin (Bos taurus, UniProt P00735); assay: In vitro Enzyme Inhibitory activity measured against Thrombin
[2] = Ratio of IC50 towards Tissue Plasminogen activator to thrombin
[3] = Ratio of IC50 towards Plasmin to thrombin

Plasminogen, sequence (P00747 97-580 limits assumed): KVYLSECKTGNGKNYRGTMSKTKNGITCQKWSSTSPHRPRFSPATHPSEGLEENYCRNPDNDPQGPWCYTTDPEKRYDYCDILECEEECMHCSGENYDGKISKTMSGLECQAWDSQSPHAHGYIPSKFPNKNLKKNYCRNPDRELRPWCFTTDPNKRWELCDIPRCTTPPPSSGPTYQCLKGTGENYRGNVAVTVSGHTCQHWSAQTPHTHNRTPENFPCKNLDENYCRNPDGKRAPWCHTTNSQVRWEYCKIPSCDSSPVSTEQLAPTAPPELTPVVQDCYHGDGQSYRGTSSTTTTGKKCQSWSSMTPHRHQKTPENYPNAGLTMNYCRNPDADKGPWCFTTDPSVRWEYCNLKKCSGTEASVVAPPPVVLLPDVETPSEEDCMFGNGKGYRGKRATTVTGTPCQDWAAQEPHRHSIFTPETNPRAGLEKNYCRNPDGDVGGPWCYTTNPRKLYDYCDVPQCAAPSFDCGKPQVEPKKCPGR
Plasminogen, sequence (P00747 581-810 limits assumed): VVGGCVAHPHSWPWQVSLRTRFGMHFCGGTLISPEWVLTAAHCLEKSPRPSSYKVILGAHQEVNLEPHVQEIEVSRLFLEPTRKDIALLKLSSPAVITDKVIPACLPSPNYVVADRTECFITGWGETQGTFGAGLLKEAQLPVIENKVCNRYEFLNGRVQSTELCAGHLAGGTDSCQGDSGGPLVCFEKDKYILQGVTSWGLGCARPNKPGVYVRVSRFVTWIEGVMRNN
Tissue-type plasminogen activator, sequence (P00750 whole entry): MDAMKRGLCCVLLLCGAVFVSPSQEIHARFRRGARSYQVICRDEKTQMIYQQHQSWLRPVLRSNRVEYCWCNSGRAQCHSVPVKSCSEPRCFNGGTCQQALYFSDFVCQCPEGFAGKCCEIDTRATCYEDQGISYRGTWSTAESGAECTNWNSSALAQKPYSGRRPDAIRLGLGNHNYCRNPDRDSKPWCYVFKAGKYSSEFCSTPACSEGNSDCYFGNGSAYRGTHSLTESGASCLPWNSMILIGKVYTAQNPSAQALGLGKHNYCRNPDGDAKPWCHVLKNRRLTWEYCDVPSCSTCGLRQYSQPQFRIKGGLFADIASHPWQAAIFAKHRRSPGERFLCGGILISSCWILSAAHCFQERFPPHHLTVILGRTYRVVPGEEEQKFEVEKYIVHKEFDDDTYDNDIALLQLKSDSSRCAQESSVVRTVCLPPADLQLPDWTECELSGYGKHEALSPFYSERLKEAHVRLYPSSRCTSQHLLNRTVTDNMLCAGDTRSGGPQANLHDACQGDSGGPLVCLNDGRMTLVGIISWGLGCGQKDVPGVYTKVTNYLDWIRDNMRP
Coagulation factor X, sequence (P00743 41-180 limits assumed): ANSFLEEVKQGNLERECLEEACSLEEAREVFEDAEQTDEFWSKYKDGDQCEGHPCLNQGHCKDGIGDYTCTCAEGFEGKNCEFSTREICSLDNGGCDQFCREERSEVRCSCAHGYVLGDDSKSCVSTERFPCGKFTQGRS
Coagulation factor X, sequence (P00743 234-492 limits assumed): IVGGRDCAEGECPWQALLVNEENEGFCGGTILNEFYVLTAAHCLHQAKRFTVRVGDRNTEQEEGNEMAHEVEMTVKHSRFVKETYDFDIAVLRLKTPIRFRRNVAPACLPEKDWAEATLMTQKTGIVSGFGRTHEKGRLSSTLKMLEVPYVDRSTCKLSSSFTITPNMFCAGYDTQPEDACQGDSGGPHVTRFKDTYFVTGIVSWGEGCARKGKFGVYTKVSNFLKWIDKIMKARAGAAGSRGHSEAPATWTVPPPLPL

SMILES	IC50 [1]	IC50 (Plasminogen)	IC50 (Coagulation factor X)	IC50 (Serine protease 1)	IC50 (Prothrombin)	Selectivity [2]	Selectivity [3]
CC(C)(C)OC(=O)N[C@H](Cc1ccccc1)C(=O)N1CC[C@H]1C(=O)N[C@H](C=O)CCCNC(=N)N	0.9 µM	0.36 µM	1.3 µM	0.0097 µM	–	–	–
CC(C)(C)OC(=O)NC(Cc1ccccc1)C(=O)N1CSCC1C(=O)N[C@H](C=O)CCCN=C(N)N (stereo in doubt) [listing 1 of 3 here]	23 µM	0.34 µM	0.86 µM	0.0088 µM	–	–	–
CC(C)(C)OC(=O)NC(Cc1ccccc1)C(=O)N1CSCC1C(=O)N[C@H](C=O)CCCN=C(N)N (stereo in doubt) [listing 2 of 3 here]	–	–	–	–	0.088 µM	–	–
CC(C)(C)OC(=O)NC(Cc1ccccc1)C(=O)N1C(C(=O)N[C@H](C=O)CCCN=C(N)N)CCC1(C)C (stereo in doubt) [listing 1 of 3 here]	> 30000 µM	11 µM	18 µM	0.17 µM	–	–	–
N=C(N)NCCC[C@@H](C=O)NC(=O)[C@@H]1CCCN1C(=O)[C@@H]1C[C@@H]2CCCC[C@@H]2CN1	30 µM	0.23 µM	3.3 µM	0.0091 µM	0.046 µM	650	5
CN[C@@H](Cc1ccccc1)C(=O)N1CCC[C@H]1C(=O)N[C@](C)(C=O)CCCN=C(N)N	> 30000 µM	850 µM	1800 µM	240 µM	1 µM	> 30000	850
CC(C)(C)OC(=O)N[C@@H](Cc1ccccc1)C(=O)N1CCCC[C@H]1C(=O)N[C@H](C=O)CCCNC(=N)N	48 µM	8.1 µM	32 µM	0.72 µM	1.7 µM	–	–
CC(C)(C)OC(=O)NC(Cc1ccccc1)C(=O)N1CC[C@H]1C(=O)N[C@@H](CCCN=C(N)N)C(=O)O (stereo in doubt)	–	–	–	–	0.018 µM	50	20
CC(C)(C)OC(=O)N[C@H](Cc1ccccc1)C(=O)N1CCC[C@H]1C(=O)N[C@H](C=O)CCCN=C(N)N	0.95 µM	–	1.6 µM	0.014 µM	0.045 µM	20	4
CC(C)(C)OC(=O)NC(Cc1ccccc1)C(=O)N1C(C(=O)N[C@H](C=O)CCCN=C(N)N)CCC1(C)C (stereo in doubt) [listing 2 of 3 here]	–	–	–	–	0.29 µM	–	–
CN[C@H](Cc1ccccc1)C(=O)N1CCC[C@H]1C(=O)N[C@H](C=O)CCCN=C(N)N	21 µM	0.67 µM	7.6 µM	0.013 µM	0.0089 µM	–	–
CC(C)(C)OC(=O)N[C@@H](C(=O)N1CCC[C@H]1C(=O)N[C@H](C=O)CCCN=C(N)N)c1ccccc1 (Boc-[dPhg]-Pro-Arg-aldehyde)	8.7 µM	–	0.26 µM	0.0098 µM	0.016 µM	540	6
CN[C@H](Cc1ccccc1)C(=O)N1CCC[C@H]1C(=O)N[C@H](C=O)CCCNC(=N)N	–	–	–	–	–	2400	80
CC(C)(C)OC(=O)NC(Cc1ccccc1)C(=O)N1C(C(=O)N[C@H](C=O)CCCN=C(N)N)CCC1(C)C (stereo in doubt) [listing 3 of 3 here]	–	–	–	–	–	> 50000	38
N=C(N)NCCC[C@@H](C=O)NC(=O)[C@@H]1CCCN1C(=O)[C@@H]1NCC[C@@H]2CCCC[C@@H]21	34 µM	0.71 µM	0.55 µM	0.053 µM	0.019 µM	1800	40
N=C(N)NCCC[C@@H](C=O)NC(=O)[C@@H]1CCCN1C(=O)[C@@H]1Cc2ccccc2CN1 (H-[Tic]-Pro-Arg-aldehyde)	430 µM	–	0.64 µM	0.023 µM	0.019 µM	–	–

The remaining lines, values ahead:

IC50 [1]	IC50 (Plasminogen)	IC50 (Coagulation factor X)	IC50 (Serine protease 1)	IC50 (Prothrombin)	Selectivity [2]	Selectivity [3]	SMILES
250 µM	7.5 µM	86 µM	0.011 µM	0.019 µM	–	–	CC(=O)N[C@@](C)(C(=O)N1CC[C@H]1C(=O)N[C@H](C=O)CCCNC(=N)N)c1ccccc1
> 30000 µM	45 µM	190 µM	0.18 µM	0.064 µM	> 50000	700	C[C@](NC(=O)C(F)(F)F)(C(=O)N1CCC[C@H]1C(=O)N[C@H](C=O)CCCN=C(N)N)c1ccccc1
6.6 µM	0.15 µM	0.27 µM	0.011 µM	–	–	–	CC(C)(C)OC(=O)N[C@@H](C(=O)N1CC[C@H]1C(=O)N[C@H](C=O)CCCN=C(N)N)c1ccccc1
–	–	–	–	–	30	5	CC(C)(C)OC(=O)N[C@@H](Cc1ccccc1)C(=O)N1CCCC[C@H]1C(=O)N[C@H](C=O)CCCN=C(N)N
120 µM	3.9 µM	0.89 µM	0.015 µM	0.022 µM	5500	180	CC(C)(C)OC(=O)N[C@@](C)(C(=O)N1CC[C@H]1C(=O)N[C@H](C=O)CCCN=C(N)N)c1ccccc1
130 µM	6.1 µM	98 µM	0.0096 µM	0.012 µM	11000	510	C[C@](NC(=O)C(F)(F)F)(C(=O)N1CC[C@H]1C(=O)N[C@H](C=O)CCCN=C(N)N)c1ccccc1
–	4.3 µM	32 µM	0.0052 µM	–	–	–	CC[C@](NC(=O)C(F)(F)F)(C(=O)N1CC[C@H]1C(=O)N[C@H](C=O)CCCN=C(N)N)c1ccccc1
–	–	–	–	–	260	4	CC(C)(C)OC(=O)NC(Cc1ccccc1)C(=O)N1CSCC1C(=O)N[C@H](C=O)CCCN=C(N)N (stereo in doubt) [listing 3 of 3 here]
–	–	–	–	–	13000	400	CC(=O)N[C@@](C)(C(=O)N1CC[C@H]1C(=O)N[C@H](C=O)CCCN=C(N)N)c1ccccc1
